The text below walks through data of article doi:10.1101/2023.11.24.568596v1 (biorxiv, 2023).

Common to all, as to conditions: binder
Assay [1] deals with CK1d (Homo sapiens, UniProt P48730).
The target in assay [2] is CK2a1 (Homo sapiens, UniProt P68400).
The target of assay [3] is CLK3 (Homo sapiens, UniProt P49761).
The target in assay [4] is T1, DRAK1 (Homo sapiens, UniProt Q9UEE5).
T1 sequence (Q9UEE5 1-414): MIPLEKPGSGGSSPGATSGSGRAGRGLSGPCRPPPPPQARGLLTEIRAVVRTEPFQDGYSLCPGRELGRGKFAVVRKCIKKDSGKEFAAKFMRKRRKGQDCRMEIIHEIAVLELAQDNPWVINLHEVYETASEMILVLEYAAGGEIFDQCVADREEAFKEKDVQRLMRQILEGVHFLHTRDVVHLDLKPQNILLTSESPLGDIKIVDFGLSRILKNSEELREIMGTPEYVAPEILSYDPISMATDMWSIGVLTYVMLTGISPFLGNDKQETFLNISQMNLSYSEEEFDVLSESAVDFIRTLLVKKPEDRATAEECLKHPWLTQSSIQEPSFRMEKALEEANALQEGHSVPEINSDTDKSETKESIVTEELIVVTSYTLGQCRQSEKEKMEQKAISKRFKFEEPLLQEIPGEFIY

Assay [5] concerns the target EphA5 (Homo sapiens, UniProt P54756).
The target in assay [6] is FGFR1 (Homo sapiens, UniProt P11362).
Chain of FGFR1 (P11362 whole entry): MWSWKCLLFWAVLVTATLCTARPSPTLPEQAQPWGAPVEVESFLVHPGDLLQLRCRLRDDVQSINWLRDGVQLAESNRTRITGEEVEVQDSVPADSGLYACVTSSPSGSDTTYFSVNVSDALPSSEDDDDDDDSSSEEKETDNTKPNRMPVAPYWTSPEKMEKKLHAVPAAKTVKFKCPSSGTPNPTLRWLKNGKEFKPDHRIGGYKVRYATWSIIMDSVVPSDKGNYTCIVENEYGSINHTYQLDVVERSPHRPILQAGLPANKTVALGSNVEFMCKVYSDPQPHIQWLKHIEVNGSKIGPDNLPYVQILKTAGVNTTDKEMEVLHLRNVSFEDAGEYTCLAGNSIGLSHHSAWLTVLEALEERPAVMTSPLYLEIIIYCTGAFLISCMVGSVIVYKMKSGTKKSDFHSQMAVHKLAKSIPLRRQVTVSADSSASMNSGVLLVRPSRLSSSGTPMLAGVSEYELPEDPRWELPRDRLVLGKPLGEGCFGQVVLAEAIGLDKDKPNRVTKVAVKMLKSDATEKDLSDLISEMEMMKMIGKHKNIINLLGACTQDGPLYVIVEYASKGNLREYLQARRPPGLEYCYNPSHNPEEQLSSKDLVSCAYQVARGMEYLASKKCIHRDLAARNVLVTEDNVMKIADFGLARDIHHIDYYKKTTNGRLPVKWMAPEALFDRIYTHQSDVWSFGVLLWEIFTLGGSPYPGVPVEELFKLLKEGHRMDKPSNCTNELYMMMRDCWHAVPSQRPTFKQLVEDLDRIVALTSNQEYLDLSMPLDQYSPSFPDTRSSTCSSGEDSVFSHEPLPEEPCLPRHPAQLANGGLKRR
In assay [7] the target is GSK3B (Homo sapiens, UniProt P49841).
Chain of GSK3B (P49841 whole entry): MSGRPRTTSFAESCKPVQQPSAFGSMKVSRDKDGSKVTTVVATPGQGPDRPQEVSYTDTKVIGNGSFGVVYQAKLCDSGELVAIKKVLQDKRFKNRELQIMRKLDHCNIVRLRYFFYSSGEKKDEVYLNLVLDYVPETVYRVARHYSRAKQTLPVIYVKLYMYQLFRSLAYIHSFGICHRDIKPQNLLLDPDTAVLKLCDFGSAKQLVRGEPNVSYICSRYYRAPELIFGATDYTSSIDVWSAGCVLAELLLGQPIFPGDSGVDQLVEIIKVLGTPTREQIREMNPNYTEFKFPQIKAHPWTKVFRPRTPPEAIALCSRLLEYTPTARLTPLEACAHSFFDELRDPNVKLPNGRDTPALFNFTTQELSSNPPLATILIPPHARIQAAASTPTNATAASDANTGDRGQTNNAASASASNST
For assay [8], the target named is JNK2 (Homo sapiens, UniProt P45984).
The target in assay [9] is JNK3 (Homo sapiens, UniProt P53779).
Chain of JNK3 (P53779 whole entry): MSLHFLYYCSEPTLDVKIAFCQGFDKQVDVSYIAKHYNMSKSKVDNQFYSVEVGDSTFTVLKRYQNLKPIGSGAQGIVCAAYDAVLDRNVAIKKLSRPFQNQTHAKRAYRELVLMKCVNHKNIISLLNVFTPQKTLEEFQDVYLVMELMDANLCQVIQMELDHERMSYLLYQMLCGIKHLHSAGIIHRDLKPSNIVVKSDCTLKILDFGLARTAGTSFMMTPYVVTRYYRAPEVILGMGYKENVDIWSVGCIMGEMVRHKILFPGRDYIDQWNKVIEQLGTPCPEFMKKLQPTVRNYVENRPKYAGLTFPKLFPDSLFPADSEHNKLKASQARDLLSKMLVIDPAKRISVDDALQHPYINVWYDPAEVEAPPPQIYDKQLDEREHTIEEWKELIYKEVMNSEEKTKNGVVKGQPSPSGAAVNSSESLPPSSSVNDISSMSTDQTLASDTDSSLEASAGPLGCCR
Assay [10] addresses T2, MAP2K7 (Homo sapiens, UniProt O14733).
T2 sequence (O14733 1-419): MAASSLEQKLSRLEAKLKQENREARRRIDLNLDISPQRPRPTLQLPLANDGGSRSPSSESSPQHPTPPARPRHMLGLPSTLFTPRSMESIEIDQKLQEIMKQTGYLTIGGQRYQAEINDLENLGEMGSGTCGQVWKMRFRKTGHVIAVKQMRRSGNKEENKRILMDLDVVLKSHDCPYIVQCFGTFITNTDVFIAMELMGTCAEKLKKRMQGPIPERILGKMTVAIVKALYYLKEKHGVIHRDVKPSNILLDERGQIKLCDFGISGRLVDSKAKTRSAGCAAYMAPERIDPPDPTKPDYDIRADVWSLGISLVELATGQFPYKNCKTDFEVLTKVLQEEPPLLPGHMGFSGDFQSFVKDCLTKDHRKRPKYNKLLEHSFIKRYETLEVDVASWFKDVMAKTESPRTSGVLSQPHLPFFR

In assay [11] the target is MARK3 (Homo sapiens, UniProt P27448).
The target of assay [12] is MSK1b (Homo sapiens, UniProt O75582).
Chain of MSK1b (O75582 whole entry): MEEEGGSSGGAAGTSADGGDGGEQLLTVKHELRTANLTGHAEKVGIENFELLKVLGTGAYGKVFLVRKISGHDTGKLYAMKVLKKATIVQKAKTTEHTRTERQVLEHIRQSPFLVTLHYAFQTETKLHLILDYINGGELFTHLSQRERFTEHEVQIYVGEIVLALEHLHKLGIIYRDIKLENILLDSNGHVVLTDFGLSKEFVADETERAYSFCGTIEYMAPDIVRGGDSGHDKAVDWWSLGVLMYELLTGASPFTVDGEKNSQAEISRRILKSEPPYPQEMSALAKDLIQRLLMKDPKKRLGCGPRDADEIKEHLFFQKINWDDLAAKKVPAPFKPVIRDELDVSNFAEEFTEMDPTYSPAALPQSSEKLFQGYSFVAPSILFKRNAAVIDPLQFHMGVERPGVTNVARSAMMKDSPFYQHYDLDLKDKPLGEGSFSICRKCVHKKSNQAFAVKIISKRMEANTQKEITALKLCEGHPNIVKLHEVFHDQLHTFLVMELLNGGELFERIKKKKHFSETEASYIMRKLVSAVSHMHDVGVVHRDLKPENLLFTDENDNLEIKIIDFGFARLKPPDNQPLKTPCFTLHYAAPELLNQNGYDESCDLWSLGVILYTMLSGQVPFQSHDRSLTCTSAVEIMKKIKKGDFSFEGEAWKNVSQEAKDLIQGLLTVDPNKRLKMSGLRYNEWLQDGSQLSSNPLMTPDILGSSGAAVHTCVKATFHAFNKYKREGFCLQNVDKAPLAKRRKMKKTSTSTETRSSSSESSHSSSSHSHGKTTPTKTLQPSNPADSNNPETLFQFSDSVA
For assay [13], the target named is MSSK1 (Homo sapiens, UniProt Q9UPE1).
Chain of MSSK1 (Q9UPE1 whole entry): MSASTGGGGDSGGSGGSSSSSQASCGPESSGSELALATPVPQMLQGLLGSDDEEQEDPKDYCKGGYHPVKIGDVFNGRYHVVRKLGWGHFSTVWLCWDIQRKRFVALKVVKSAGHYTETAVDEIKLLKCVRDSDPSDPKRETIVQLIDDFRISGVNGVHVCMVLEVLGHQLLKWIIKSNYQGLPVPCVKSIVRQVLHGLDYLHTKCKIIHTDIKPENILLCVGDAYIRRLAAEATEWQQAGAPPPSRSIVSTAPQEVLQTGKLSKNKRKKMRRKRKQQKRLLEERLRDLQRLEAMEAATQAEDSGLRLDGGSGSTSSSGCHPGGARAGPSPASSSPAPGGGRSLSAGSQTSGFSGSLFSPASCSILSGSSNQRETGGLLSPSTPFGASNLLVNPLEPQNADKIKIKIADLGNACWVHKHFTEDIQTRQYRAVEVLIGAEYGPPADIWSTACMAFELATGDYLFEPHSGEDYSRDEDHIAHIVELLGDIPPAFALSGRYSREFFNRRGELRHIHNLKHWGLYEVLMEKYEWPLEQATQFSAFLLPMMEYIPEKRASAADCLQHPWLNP
Assay [14] concerns the target NEK7 (Homo sapiens, UniProt Q8TDX7).
Assay [15] concerns the target Wnk1 (Homo sapiens, UniProt Q9H4A3).

Molecules are shown by their SMILES.

Chain of CK2a1 (P68400 whole entry): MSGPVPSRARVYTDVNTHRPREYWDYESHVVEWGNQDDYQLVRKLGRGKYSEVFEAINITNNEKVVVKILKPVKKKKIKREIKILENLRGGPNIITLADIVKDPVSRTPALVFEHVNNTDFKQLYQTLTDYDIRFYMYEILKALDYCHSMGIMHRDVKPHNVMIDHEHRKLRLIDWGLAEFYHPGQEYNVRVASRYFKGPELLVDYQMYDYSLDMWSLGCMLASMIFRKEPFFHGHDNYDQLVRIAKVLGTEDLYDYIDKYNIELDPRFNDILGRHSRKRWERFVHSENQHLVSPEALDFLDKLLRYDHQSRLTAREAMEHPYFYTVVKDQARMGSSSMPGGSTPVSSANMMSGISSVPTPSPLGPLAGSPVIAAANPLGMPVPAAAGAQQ
Chain of NEK7 (Q8TDX7 whole entry): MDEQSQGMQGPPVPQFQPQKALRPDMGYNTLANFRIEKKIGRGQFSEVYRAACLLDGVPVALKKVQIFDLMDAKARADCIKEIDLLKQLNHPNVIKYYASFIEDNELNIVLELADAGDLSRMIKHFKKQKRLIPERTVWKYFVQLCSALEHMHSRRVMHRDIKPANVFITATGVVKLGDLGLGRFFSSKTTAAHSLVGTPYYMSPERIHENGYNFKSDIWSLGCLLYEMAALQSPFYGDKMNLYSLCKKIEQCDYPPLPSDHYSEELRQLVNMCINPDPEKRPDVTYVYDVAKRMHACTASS
Chain of CK1d (P48730 whole entry): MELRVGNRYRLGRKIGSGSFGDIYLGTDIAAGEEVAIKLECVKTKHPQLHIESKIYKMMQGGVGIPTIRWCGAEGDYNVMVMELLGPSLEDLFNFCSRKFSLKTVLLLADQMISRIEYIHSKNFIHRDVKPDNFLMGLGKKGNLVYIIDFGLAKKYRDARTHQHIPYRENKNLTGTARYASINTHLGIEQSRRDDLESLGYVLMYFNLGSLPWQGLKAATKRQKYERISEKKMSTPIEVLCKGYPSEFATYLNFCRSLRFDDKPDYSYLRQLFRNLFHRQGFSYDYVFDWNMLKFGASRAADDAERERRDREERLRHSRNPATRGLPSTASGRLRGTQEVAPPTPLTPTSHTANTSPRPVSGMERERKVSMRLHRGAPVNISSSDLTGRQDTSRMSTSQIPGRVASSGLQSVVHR
Chain of CLK3 (P49761 whole entry): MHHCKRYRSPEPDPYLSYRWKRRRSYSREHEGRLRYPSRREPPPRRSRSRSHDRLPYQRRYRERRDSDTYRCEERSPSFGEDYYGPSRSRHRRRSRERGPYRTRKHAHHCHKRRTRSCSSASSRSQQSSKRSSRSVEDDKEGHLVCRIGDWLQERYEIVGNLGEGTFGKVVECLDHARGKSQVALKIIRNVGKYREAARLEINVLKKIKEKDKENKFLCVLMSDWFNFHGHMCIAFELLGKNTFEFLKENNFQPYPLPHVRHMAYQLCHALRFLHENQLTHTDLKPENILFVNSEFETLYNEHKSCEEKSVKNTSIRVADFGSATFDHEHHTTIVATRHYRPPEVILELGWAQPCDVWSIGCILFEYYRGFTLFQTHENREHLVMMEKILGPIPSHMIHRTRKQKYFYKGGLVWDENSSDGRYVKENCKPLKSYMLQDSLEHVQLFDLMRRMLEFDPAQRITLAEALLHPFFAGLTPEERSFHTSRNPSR

Regarding `Cc1cccc(-c2ccc(-c3cc4cnc(Nc5ccc(F)c(CO)c5)nc4n(CCCCN)c3=O)c(Cl)c2)n1` [compound 33, 8-(4-Aminobutyl)-6-(2-chloro-4-(6-methylpyridin-2-yl)phenyl)-2-((4-fluoro-3-(hydroxymethyl)phenyl)amino)pyrido[2,3-d]pyrimidin-7(8H)-one], the “dTm 33” value in assay [1] was 2.2 °C; in assay [2] it was -0.4 °C; in [3], -0.5 °C; in [4], 3.5 °C; in assay [5], 6.8 °C; in assay [6], 2.0 °C. Further, the “dTm 33” value in [7] was determined as 2.3 °C; in assay [8], 3.0 °C; in assay [9] it was 5.2 °C; in assay [10] it was 7.7 °C; in [11], 11.5 °C; in [12], 3.5 °C. The “dTm 33” value is -0.4 °C in [13], -1.4 °C in assay [14] and 3.3 °C in [15].

For the compound `COc1ccc(O)c(Nc2ncc3cc(-c4ccc(-c5cccc(C)n5)cc4Cl)c(=O)n(CCCCN)c3n2)c1` [compound 34, 8-(4-Aminobutyl)-6-(2-chloro-4-(6-methylpyridin-2-yl)phenyl)-2-((2-hydroxy-5-methoxy-phenyl)amino)pyrido[2,3-d]pyrimidin-7(8H)-one], the “dTm 34” value is 1.3 °C in assay [1]; 0.5 °C in assay [2]; -1.0 °C in assay [3]; 2.2 °C in assay [4]; 3.2 °C in [5]; 0.9 °C in assay [6]. The “dTm 34” value was 2.0 °C in assay [7]; 0.3 °C in assay [8]; 3.0 °C in [9]; 1.3 °C in [10]; 5.1 °C in assay [11]; 2.4 °C in assay [12]. For the same compound, the “dTm 34” value in assay [13] was 0.4 °C; in assay [14], -1.0 °C; in assay [15], 0.8 °C.

In the case of `COc1cc(N2CCOCC2)ccc1Nc1ncc2cc(-c3ccc(-c4cccc(C)n4)cc3Cl)c(=O)n(CCCCN)c2n1` [compound 35, 8-(4-Aminobutyl)-6-(2-chloro-4-(6-methylpyridin-2-yl)phenyl)-2-((2-methoxy-4-morpholino-phenyl)amino)pyrido[2,3-d]pyrimidin-7(8H)-one], the “dTm 35” value was 1.8 °C in assay [1]; -0.1 °C in assay [2]; -1.3 °C in [3]; 5.2 °C in assay [4]; 4.2 °C in [5]; 0.4 °C in assay [6]. The “dTm 35” value is -0.3 °C in assay [7]; 0.1 °C in assay [8]; 2.3 °C in assay [9]; 2.0 °C in assay [10]; 6.9 °C in assay [11]; 3.8 °C in assay [12]. Further, the “dTm 35” value in assay [13] was -0.2 °C; in assay [14] it was -2.4 °C; in [15] it was 2.7 °C.

Turning to `COc1cc(N2CCN(C)CC2)ccc1Nc1ncc2cc(-c3ccc(-c4cccc(C)n4)cc3Cl)c(=O)n(CCCCN)c2n1` [compound 36, 8-(4-Aminobutyl)-6-(2-chloro-4-(6-methylpyridin-2-yl)phenyl)-2-((2-methoxy-4-(4-methylpiperazin-1-yl)phenyl)amino)pyrido[2,3-d]pyrimidin-7(8H)-one], the “dTm 36” value in [1] was 1.1 °C; in [2], 0.2 °C; in assay [3] it was -0.7 °C; in [4], 6.1 °C; in [5], 3.5 °C; in assay [6], 2.0 °C. Further, the “dTm 36” value in assay [7] was 0.2 °C; in assay [8] it was -0.3 °C; in assay [9], 1.1 °C; in assay [10], 0.0 °C; in assay [11] it was 8.5 °C; in [12], 3.0 °C. In addition, the “dTm 36” value in [13] is 0.0 °C; in assay [14], -1.4 °C; in assay [15], 1.5 °C.
